Results reported in patent US20030055073A1, “Remedies for sjoegren's syndrome” (priority 2000, published 2003).

Tests used:
[1] = Toxicity: maximum tolerated dose with an intravenous injection; conditions: mouse, in vivo, mice
Protocol: The toxicity of the compound represented by formula (I), (IA) or (Ia) of the present invention is very low and it was confirmed that it is sufficiently safe as a medicament. For example, a maximum tolerated dose with an intravenous injection using the compound represented by formula (Ia) of the present invention is 30 mg/kg in mice.

[2] = system: NFS/sld female mice (thymic gland extracted on the 3rd day after birth; Sjögren's syndrome model); assay: Gland liquid secretion after pilocarpine stimulation in model mouse of naturally crisis Sjögren's syndrome; format: in vivo; conditions: 5 μg/kg/day s.c. once per day from 3 to 8 week age; 8th week, 0.5 mg/kg pilocarpine hydrochloride i.p.; measured for 35 minutes at 5 minute intervals
Protocol: (§1) NFS/sld female mice of which thymic gland have been extracted on the 3rd day after the birth have Sjögren's syndrome after 4 weeks (Journal of Immunology, 153, 2769 (1994)). The compound represented by formula (la) of the present invention was subcutaneously administered once per day (5 μg/kg/day) to the mice from 3 week age to 8 week age which were immediately before histologic grand disorder was observed. The experiment was carried out for 3 non-administered groups (pathologic control) and 5 administered groups. In the 8th week, a stimulating agent (0.5 mg/kg pilocarpine hydrochloride) was intraperitoneally administered, and an amount of salivary gland liquid and an amount of lacrimal gland liquid were measured and evaluation was carried out by tissue findings.
Tables 1 and 2 show amounts of gland liquids (salivary gland secretory liquid and lacrimal gland secretory liquid) as cumulative rates (AUC) which measured for 35 minutes at the interval of 5 minutes after the administration of the stimulating agent.

[3] = system: NFS/sld female mice (thymic gland extracted on the 3rd day after birth; Sjögren's syndrome model); assay: Laesio score by tissue findings of target organs in model mouse of Sjögren's syndrome (standard of White and Casarett); format: in vivo; conditions: 5 μg/kg/day s.c., 3 to 8 week age
Protocol: as §1
The score is improved at a factor of ⅓ to ½ in each gland. The score was obtained based on the standard of White and Casarett (Journal of Immunology, 112, 178 (1974)).

C[C@H]1CC(=N)N[C@@H]2[C@H](Cl)[C@@H]21 [formula (Ia), (+)-trans-3-imino-5-methyl-7-chloro-2-azabicyclo[4.1.0]heptane]
MTD [1]: 30 mg/kg
Lacrimal gland secretory liquid after administration of stimulating agent AUC0-35 minutes [2]: 0.798 mm/animal weight (g)
Salivary gland secretory liquid after administration of stimulating agent AUC0-35 minutes [2]: 15.8 μl/animal weight (g)
laesio score improved at a factor of (versus non-administered group) ([3]; each gland, score by standard of White and Casarett): ⅓ to ½
inhibition effect on laesio for each target organ ([3]; submaxillary salivary gland, sublingual gland, parotid gland, lacrimal gland, FIG. 1): significant inhibition effects on laesio
